Assays:
[1] = test system: BxPC3 pancreatic cancer cell line; assay: Antitumor activity in BxPC3 pancreatic cancer xenograft model; assay type: in vivo, human (xenograft in athymic female nude mice)
Experimental: Tumor cells from the BxPC3 pancreatic cancer cell line were grown to approximately 80% confluency, trypsinized, collected, washed once in HBSS (Hank's balance salt solution, Mediatech Inc.), and re-suspended in 50% Matrigel in HBSS at 2×10^7 cells/mL on ice before inoculation into animals. Athymic female nude mice (average weight ˜20 g) were inoculated intramuscularly (IM) with 0.05 mL of cell suspension, peritibially, in the left hind leg (adjacent to the tibia periosteum). The tumors in the animals were assessed twice a week and allowed to grow to a mean tumor volume of approximately 250 mm^3 (Day −1; Table 13). Actual tumor volumes were determined using VisualSonics Vevo 770 high-resolution ultrasound.
The animals were randomly grouped into 6 groups of 8 animals per group (6+2 satellite mice) and treated with vehicle (API buffer), PEGPH20 (157,500 Units/kg, 4.5 mg/kg), low dose dexamethasone (1.25 mg/kg), high dose dexamethasone (5 mg/kg), PEGPH20 (4.5 mg/kg)+low dose dexamethasone (1.25 mg/kg) and PEGPH20 (4.5 mg/kg)+high dose dexamethasone (5 mg/kg). The dose and frequency of the PEGPH20 (or vehicle) intravenous injections was 157,500 Units/kg or approximately 4.5 mg/kg, on Days 0, 3, 7, 10, 13 and 17 for a total of 6 injections starting on Day 0 (dose volume of 0.1 mL). The doses and frequency of the dexamethasone intraperitonal injections was 1.25 mg/kg at the low dose and 5 mg/kg at the high dose, once a day until Day 17 (QDx17) with a dose volume of 0.1 mL.
The tumor volumes of all mice were measured pre-treatment on Days −4 and −1 (mean tumor volume of ˜250 mm^3) and on Days 4, 7, 11, 14 and 17 by capturing images using the VisualSonic ultrasound system and using an ultrasound imaging software program to calculate the tumor volume (Table 13). The percent tumor growth inhibition (% TGI) was calculated as described above in Example 9A.

[2] = test system: PC3 prostate carcinoma cell line; assay: Antitumor activity in PC3 prostate cancer xenograft model; assay type: in vivo, human (xenograft in athymic male nude mice); design: key to % TGI (% Tumor Growth Inhibition): TR = Tumor Regression
Experimental: Tumor cells from the PC3 prostate carcinoma cell line were grown to approximately 80% confluency then trypsinized, collected, washed once in HBSS (Hank's balance salt solution, Mediatech Inc.), then re-suspended in 50% Matrigel® in HBSS at 2×10^7 cells/mL on ice before inoculation into animals. Athymic male nude mice (Nu/Nu (Ncr); Taconic Farms; average weight ˜20 g) were inoculated intramuscularly (IM) with 0.05 mL of this cell suspension, peritibially, in the left hind leg (adjacent to the tibia periosteum). The implants in the animals were assessed twice a week and allowed to grow to a mean tumor volume of approximately 500 mm^3 (Day −2; Table 12). Actual tumor volumes were determined using VisualSonics Vevo 770 high-resolution ultrasound, using two perpendicular axial dimensions.
Animals were sorted randomly and grouped into 6 groups of 8 mice per group (6+2 satellite mice). Treatment groups were vehicle (API buffer), PEGPH20 (157,500 Units/kg, 4.5 mg/kg), low dose dexamethasone (1.25 mg/kg), high dose dexamethasone (5 mg/kg), PEGPH20 (4.5 mg/kg)+low dose dexamethasone (1.25 mg/kg) and PEGPH20 (4.5 mg/kg)+high dose dexamethasone (5 mg/kg). The dose and frequency of the PEGPH20 (or vehicle) intravenous injections was 157,500 Units/kg or approximately 4.5 mg/kg, every 3rd day starting on Day 0 (Days 0, 3, 6, 9, 12) with a total of 5 injections (Q3Dx5) with a dose volume of 0.1 mL. This dosing and frequency regimen was previously shown to inhibit xenograft tumor growth by 34-70%. The doses and frequency of the dexamethasone intraperitonal injections were 1.25 mg/kg at the low dose and 5 mg/kg at the high dose, once a day until Day 13 (QDx13) with a dose volume of 0.1 mL.
The tumor volumes of all mice were measured pre-treatment on Day −2 (average tumor volume of ˜500 mm^3) and on Day 1, 6, 9, 13, 16 and 20 by capturing images using the VisualSonic ultrasound system and using an ultrasound imaging software program to calculate tumor volume (Table 12).

[3] = Day 4, PEGPH20 4.5 mg/kg IV x6 and/or dexamethasone 1.25 mg/kg IP QDx17
[4] = Day 7, PEGPH20 4.5 mg/kg IV x6 and/or dexamethasone 1.25 mg/kg IP QDx17
[5] = Day 11, PEGPH20 4.5 mg/kg IV x6 and/or dexamethasone 1.25 mg/kg IP QDx17
[6] = Day 14, PEGPH20 4.5 mg/kg IV x6 and/or dexamethasone 1.25 mg/kg IP QDx17
[7] = Day 17, PEGPH20 4.5 mg/kg IV x6 and/or dexamethasone 1.25 mg/kg IP QDx17
[8] = Day −1 (pre-treatment), PEGPH20 4.5 mg/kg IV x6 and/or dexamethasone 1.25 mg/kg IP QDx17
[9] = Day −4 (pre-treatment), PEGPH20 4.5 mg/kg IV x6 and/or dexamethasone 1.25 mg/kg IP QDx17
[10] = Day 1, PEGPH20 4.5 mg/kg IV Q3Dx5 and/or dexamethasone 1.25 mg/kg IP QDx13
[11] = Day 6, PEGPH20 4.5 mg/kg IV Q3Dx5 and/or dexamethasone 1.25 mg/kg IP QDx13
[12] = Day 9, PEGPH20 4.5 mg/kg IV Q3Dx5 and/or dexamethasone 1.25 mg/kg IP QDx13
[13] = Day 13, PEGPH20 4.5 mg/kg IV Q3Dx5 and/or dexamethasone 1.25 mg/kg IP QDx13
[14] = Day 16, PEGPH20 4.5 mg/kg IV Q3Dx5 and/or dexamethasone 1.25 mg/kg IP QDx13
[15] = Day 20, PEGPH20 4.5 mg/kg IV Q3Dx5 and/or dexamethasone 1.25 mg/kg IP QDx13
[16] = Day −2 (pre-treatment), PEGPH20 4.5 mg/kg IV Q3Dx5 and/or dexamethasone 1.25 mg/kg IP QDx13

`C[C@@H]1C[C@H]2[C@@H]3CCC4=CC(=O)C=C[C@]4(C)[C@@]3(F)[C@@H](O)C[C@]2(C)[C@@]1(O)C(=O)CO` [Dexamethasone] showed a Tumor volume [1, 3] of 463.51 mm^3, a Tumor volume ([1]; Day 4, dexamethasone 5 mg/kg IP QDx17, alone or + PEGPH20 4.5 mg/kg IV x6) of 396.26 mm^3 and a Tumor volume [1, 4] of 609.40 mm^3. The Tumor volume ([1]; Day 7, dexamethasone 5 mg/kg IP QDx17, alone or + PEGPH20 4.5 mg/kg IV x6) was 379.39 mm^3, the “% TGI (% Tumor Growth Inhibition)” value ([1]; Day 7, dexamethasone 5 mg/kg alone or + PEGPH20 4.5 mg/kg) was 53% and the Tumor volume [1, 5] was 732.92 mm^3. The Tumor volume ([1]; Day 11, dexamethasone 5 mg/kg IP QDx17, alone or + PEGPH20 4.5 mg/kg IV x6) was 481.54 mm^3, the “% TGI (% Tumor Growth Inhibition)” value ([1]; Day 11, dexamethasone 5 mg/kg alone or + PEGPH20 4.5 mg/kg) was 49% and the Tumor volume [1, 6] was 796.84 mm^3. For the same molecule, the Tumor volume ([1]; Day 14, dexamethasone 5 mg/kg IP QDx17, alone or + PEGPH20 4.5 mg/kg IV x6) was 603.82 mm^3, the “% TGI (% Tumor Growth Inhibition)” value ([1]; Day 14, dexamethasone 5 mg/kg alone or + PEGPH20 4.5 mg/kg) was 46% and the Tumor volume [1, 7] was 933.86 mm^3. The Tumor volume ([1]; Day 17, dexamethasone 5 mg/kg IP QDx17, alone or + PEGPH20 4.5 mg/kg IV x6) was 720.95 mm^3, the “% TGI (% Tumor Growth Inhibition)” value ([1]; Day 17, dexamethasone 5 mg/kg alone or + PEGPH20 4.5 mg/kg) was 50% and the Tumor volume [1, 8] was 312.65 mm^3. For the same molecule, the Tumor volume ([1]; Day −1 (pre-treatment), dexamethasone 5 mg/kg IP QDx17, alone or + PEGPH20 4.5 mg/kg IV x6) was 231.18 mm^3, the Tumor volume [1, 9] was 202.85 mm^3 and the Tumor volume ([1]; Day −4 (pre-treatment), dexamethasone 5 mg/kg IP QDx17, alone or + PEGPH20 4.5 mg/kg IV x6) was 197.29 mm^3. It also gave a Tumor volume [2, 10] of 636.98 mm^3, a Tumor volume ([2]; Day 1, dexamethasone 5 mg/kg IP QDx13, alone or + PEGPH20 4.5 mg/kg IV Q3Dx5) of 633.84 mm^3 and a Tumor volume [2, 11] of 727.80 mm^3. For the same molecule, the Tumor volume ([2]; Day 6, dexamethasone 5 mg/kg IP QDx13, alone or + PEGPH20 4.5 mg/kg IV Q3Dx5) was 854.90 mm^3, the Tumor volume [2, 12] was 964.35 mm^3 and the Tumor volume ([2]; Day 9, dexamethasone 5 mg/kg IP QDx13, alone or + PEGPH20 4.5 mg/kg IV Q3Dx5) was 995.47 mm^3. It also gave a Tumor volume [2, 13] of 1202.35 mm^3, a Tumor volume ([2]; Day 13, dexamethasone 5 mg/kg IP QDx13, alone or + PEGPH20 4.5 mg/kg IV Q3Dx5) of 1211.50 mm^3 and a Tumor volume [2, 14] of 1401.91 mm^3. The Tumor volume ([2]; Day 16, dexamethasone 5 mg/kg IP QDx13, alone or + PEGPH20 4.5 mg/kg IV Q3Dx5) was 1455.27 mm^3, the Tumor volume [2, 15] was 1792.92 mm^3 and the Tumor volume ([2]; Day 20, dexamethasone 5 mg/kg IP QDx13, alone or + PEGPH20 4.5 mg/kg IV Q3Dx5) was 1840.11 mm^3. For the same molecule, the Tumor volume [2, 16] was 486.88 mm^3 and the Tumor volume ([2]; Day −2 (pre-treatment), dexamethasone 5 mg/kg IP QDx13, alone or + PEGPH20 4.5 mg/kg IV Q3Dx5) was 516.25 mm^3.

B1: PEGPH20 (protein)
chain: LNFRAPPVIPNVPFLWAWNAPSEFCLGKFDEPLDMSLFSFIGSPRINATGQGVTIFYVDRLGYYPYIDSITGVTVNGGIPQKISLQDHLDKAKKDITFYMPVDNLGMAVIDWEEWRPTWARNWKPKDVYKNRSIELVQQQNVQLSLTEATEKAKQEFEKAGKDFLVETIKLGKLLRPNHLWGYYLFPDCYNHHYKKPGYNGSCFNVEIKRNDDLSWLWNESTALYPSIYLNTQQSPVAATLYVRNRVREAIRVSKIPDAKSPLPVFAYTRIVFTDQVLKFLSQDELVYTFGETVALGASGIVIWGTLSIMRSMKSCLLLDNYMETILNPYIINVTLAAKMCSQVLCQEQGVCIRKNWNSSDYLHLNPDNFAIQLEKGGKFTVRGKPTLEDLEQFSEKFYCSCYSTLSCKEKADVKDTDAVDVCIADGVCIDAFLKPPMETEEPQIFY
For B1, the Tumor volume [1, 3] was 350.44 mm^3, the “% TGI (% Tumor Growth Inhibition)” value ([1]; Day 4, PEGPH20 4.5 mg/kg alone or + dexamethasone 1.25 mg/kg) was 68% and the Tumor volume [1, 4] was 394.40 mm^3. The “% TGI (% Tumor Growth Inhibition)” value ([1]; Day 7, PEGPH20 4.5 mg/kg alone or + dexamethasone 1.25 mg/kg) was 63%, the Tumor volume [1, 5] was 473.50 mm^3 and the “% TGI (% Tumor Growth Inhibition)” value ([1]; Day 11, PEGPH20 4.5 mg/kg alone or + dexamethasone 1.25 mg/kg) was 60%. The Tumor volume [1, 6] was 596.96 mm^3, the “% TGI (% Tumor Growth Inhibition)” value ([1]; Day 14, PEGPH20 4.5 mg/kg alone or + dexamethasone 1.25 mg/kg) was 54% and the Tumor volume [1, 7] was 790.16 mm^3. The “% TGI (% Tumor Growth Inhibition)” value ([1]; Day 17, PEGPH20 4.5 mg/kg alone or + dexamethasone 1.25 mg/kg) was 48%, the Tumor volume [1, 8] was 275.75 mm^3 and the Tumor volume [1, 9] was 196.87 mm^3. For the same molecule, the Tumor volume [2, 10] was 394.38 mm^3, the “% TGI (% Tumor Growth Inhibition)” value ([2]; Day 1, PEGPH20 4.5 mg/kg alone or + dexamethasone 1.25 mg/kg) was “TR” and the Tumor volume [2, 11] was 598.39 mm^3. For the same molecule, the “% TGI (% Tumor Growth Inhibition)” value ([2]; Day 6, PEGPH20 4.5 mg/kg alone or + dexamethasone 1.25 mg/kg) was 71%, the Tumor volume [2, 12] was 674.83 mm^3 and the “% TGI (% Tumor Growth Inhibition)” value ([2]; Day 9, PEGPH20 4.5 mg/kg alone or + dexamethasone 1.25 mg/kg) was 64%. The Tumor volume [2, 13] was 827.53 mm^3, the “% TGI (% Tumor Growth Inhibition)” value ([2]; Day 13, PEGPH20 4.5 mg/kg alone or + dexamethasone 1.25 mg/kg) was 56% and the Tumor volume [2, 14] was 1046.73 mm^3. For the same molecule, the “% TGI (% Tumor Growth Inhibition)” value ([2]; Day 16, PEGPH20 4.5 mg/kg alone or + dexamethasone 1.25 mg/kg) was 47%, the Tumor volume [2, 15] was 1310.85 mm^3 and the “% TGI (% Tumor Growth Inhibition)” value ([2]; Day 20, PEGPH20 4.5 mg/kg alone) was 41%. The Tumor volume [2, 16] was 491.10 mm^3.

Reference: US9878046B2, “Adverse side-effects associated with administration of an anti-hyaluronan agent and methods for ameliorating or preventing the side-effects” (Halozyme, Inc., priority 2010, dated 2018)
